Laboratory results reported in patent publication US7713994B2 (Wyeth LLC, priority 2005, dated 2010).

How the values were obtained:
IGF1-receptor kinase = target: T1, IGF1-receptor kinase (Homo sapiens, UniProt P08069); test: IGF1-R kinase assay (96-well FRET Lance); assay type: biochemical; settings: for IC50: 100 micromolar ATP, read-out: Igfr ic50
T1 construct: Purified GST-IGFR; purified Bis-IGFR and Tris-IGFR; fused on or other part: GST with a thrombin cleavage site, removed in the Bis-IGFR and Tris-IGFR forms
Source text: • TITLE: 96-well assay for inhibitors of IGF1-receptor kinase activity • SHORT TITLE: IGF1-R kinase assay • PURPOSE: Identify inhibitors of IGF-1 receptor kinase activity • MATERIALS AND METHODS: Overview: This is a 96-well FRET (Lance) tyrosine kinase assay. • Materials: • Purified GST-IGFR; purified Bis-IGFR and Tris-IGFR; expressed in ExpresSF insect cells. Bis and Tris IGFR are made by phosphorylating the IGFR in the presence of ATP and Mg2+, followed by thrombin cleavage to remove the GST-thrombin cleavage site, and purification by HPLC. The Bis and tris IGFR are phosphorylated on two (bis) or all three tyrosines (tris) in the activation loop. • Biotinylated peptide with a sequence corresponding to the sequence surrounding the autophosphorylation sites in IGF1-R Biotin-NH2-[…]-OH (Anaspec) • Europium-conjugated phosphotyrosine antibody (PT66) (Perkin-Elmer). • Surelight APC (Perkin-elmer) • Plates: 96-well Assay plates (polypropylene plates, natural color) • 96-well-Lance plates (Microfluor 2 black plates; Cat # 7205; Thermolabsystems. • ATP: (Amersham Pharmacia Cat # 27-2056-01), 100 mM stock. • IGFR Lance Protocol (96-well format) • Procedure: • Reagents: • Kinase Buffer (10×): • 0.5 M Hepes, pH 7.5 rt • 0.1 M MgCl2 • Quench Buffer (to be added straight, 1:1, to r×n mix): • 50 mM Hepes, pH 7.5 rt • 50 mM EDTA • Lance Detection Buffer: • 20 mM Tris-HCl, pH 7.5 rt • 0.15 M NaCl-150 • 150 ug/ml BSA (Sigma Cat# A-7284) • Eu-labeled phosphotyrosine antibody PT66 (Perkin-Elmer): 1:4000 dilution of 200 μg/ml stock • Streptavidin-APC (Perkin Elmer): 1/250 (4 microgram/ml final) • ATP (Amersham Pharmacia cat #27-2056-01) 100 mM stock: Dilute to 1 mM (10×) in water. […] Transfer 12.5[…] of the kinase reaction to the antibody detection plate. Allow antibody to react for 1 h at rt in the dark. Then read in Victor with an excitation filter of 340 nm and an emission filter of 665 nm. • Compound additions: • When Example compounds are tested, they are added from a 10% DMSO/50 mM Hepes (pH 7.5) 10× stock. 5 microliters of compound in this buffer are added to the enzyme-peptide-buffer mix. After 10′ incubation at room temperature, ATP is added to start the reaction. A no ATP background control is included in the assay. • […] OF RESULTS: Data are analyzed as follows: % Inhibition={[Sample cpm−Bkg cpm]/[No cmpd cpm−Bkg cpm]}×100%. The biological activity of representative Examples of the invention is reported in Table VII as: 0.2 µM≦x≦10 µM or % inhibition@10 µM.

HCT-116 = test: Cytotoxicity assay (SRB), HCT-116; assay type: cell-based; settings: Homo sapiens, HCT-116, 72 h, HCT116 cells, SRB, three days; read-out: In Vitro Cellular Activity IC50 HCT116
Method in brief: (§1)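 Cells grown in RPMI 1640 with 5% FBS were treated with compound for three days (HCT-116, LoVo, MCF-7) or six days (BT474). Viable cell mass was quantified by sulforhodamine B staining of TCA-fixed protein and read at 540 nm.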

BT474 = test: Cytotoxicity assay (SRB), BT474; assay type: cell-based; settings: Homo sapiens, BT-474, 144 h, BT474 cells, SRB, 6 days; read-out: In Vitro Cellular Activity IC50 BT474
Method in brief: as §1

cyclin B/CDK1 enzyme = target: T2, cyclin B/CDK1 enzyme (Homo sapiens, UniProt P06493); test: CDK1 ELISA kinase assay (phospho-Rb ser 795 detection); assay type: biochemical; settings: In Vitro Enzyme Assays, read-out: CDK1 IC50
T2 construct: purchased New England BioLabs; host or cells: Sf9 insect cells, recombinant baculovirus
Method in brief: (§2)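 GST-Rb C-terminal fragment coated on plates; partially purified Sf9-expressed cyclin D1/CDK4, cyclin E/CDK2 or cyclin B/CDK1 with 200 μM ATP, pH 7.5 HEPES/MgCl2 buffer, 1 h at 30 °C; screen compound final 10 μg/ml. Phospho-Rb Ser795 detected by antibody ELISA (TMB, A450); % of control, IC50 from background-subtracted inhibition curves.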

cyclin E/CDK2 enzyme = target: T3, cyclin E/CDK2 enzyme (Homo sapiens, UniProt P24941); test: CDK2 ELISA kinase assay (phospho-Rb ser 795 detection); assay type: biochemical; settings: In Vitro Enzyme Assays, read-out: CDK2 IC50
T3 construct: made in house; host or cells: Sf9 insect cells, recombinant baculovirus
Method in brief: as §2

cyclin D1/cdk 4 enzyme = target: T4, cyclin D1/cdk 4 enzyme (Homo sapiens, UniProt P11802); test: CDK4 ELISA kinase assay (phospho-Rb ser 795 detection); assay type: biochemical; settings: In Vitro Enzyme Assays, 200 μM ATP, read-out: CDK4 IC50
T4 construct: made in house; host or cells: Sf9 insect cells, recombinant baculovirus
Method in brief: as §2

SK-UT-1B = test: In Vitro Cellular Activity (Table III), SK-UT-1B; assay type: cell-based; settings: Homo sapiens, Skut1B; SK-UT-1B cells
MCF-7 = test: Cytotoxicity assay (SRB), MCF-7; assay type: cell-based; settings: Homo sapiens, MCF7, 72 h, MCF-7 cells, SRB, three days; read-out: In Vitro Cellular Activity IC50 MCF-7
Method in brief: as §1

LoVo = test: Cytotoxicity assay (SRB), LoVo; assay type: cell-based; settings: Homo sapiens, LoVo, 72 h, LoVo cells, SRB, three days; read-out: In Vitro Cellular Activity IC50 LOVO
Method in brief: as §1

T1 sequence (P08069 999-1274 limits assumed): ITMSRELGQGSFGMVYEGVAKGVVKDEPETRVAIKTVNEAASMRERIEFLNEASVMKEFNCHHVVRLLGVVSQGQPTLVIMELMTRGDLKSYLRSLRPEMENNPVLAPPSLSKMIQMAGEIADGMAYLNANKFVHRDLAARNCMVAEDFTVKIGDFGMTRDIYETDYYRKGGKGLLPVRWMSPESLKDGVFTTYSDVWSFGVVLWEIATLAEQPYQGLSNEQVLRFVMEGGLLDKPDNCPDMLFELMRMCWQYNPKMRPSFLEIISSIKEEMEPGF
T4 sequence (P11802 whole entry, species assumed): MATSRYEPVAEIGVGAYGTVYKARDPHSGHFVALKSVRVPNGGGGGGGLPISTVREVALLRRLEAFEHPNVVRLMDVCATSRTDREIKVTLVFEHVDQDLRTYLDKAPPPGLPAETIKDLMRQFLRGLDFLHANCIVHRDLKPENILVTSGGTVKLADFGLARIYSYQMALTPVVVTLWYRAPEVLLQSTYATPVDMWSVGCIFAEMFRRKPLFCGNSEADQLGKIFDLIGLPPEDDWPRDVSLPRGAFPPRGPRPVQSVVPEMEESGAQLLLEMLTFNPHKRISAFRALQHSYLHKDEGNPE
T4 sequence (P24385 whole entry partner, species assumed): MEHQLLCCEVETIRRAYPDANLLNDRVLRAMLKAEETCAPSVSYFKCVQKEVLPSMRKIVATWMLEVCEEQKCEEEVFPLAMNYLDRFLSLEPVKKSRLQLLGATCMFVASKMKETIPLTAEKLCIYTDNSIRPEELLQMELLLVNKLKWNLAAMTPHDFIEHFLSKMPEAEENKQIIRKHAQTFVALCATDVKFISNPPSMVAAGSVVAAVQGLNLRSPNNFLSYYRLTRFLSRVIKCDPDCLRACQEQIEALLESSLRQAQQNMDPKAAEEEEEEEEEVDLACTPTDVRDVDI
T2 sequence (P06493 whole entry): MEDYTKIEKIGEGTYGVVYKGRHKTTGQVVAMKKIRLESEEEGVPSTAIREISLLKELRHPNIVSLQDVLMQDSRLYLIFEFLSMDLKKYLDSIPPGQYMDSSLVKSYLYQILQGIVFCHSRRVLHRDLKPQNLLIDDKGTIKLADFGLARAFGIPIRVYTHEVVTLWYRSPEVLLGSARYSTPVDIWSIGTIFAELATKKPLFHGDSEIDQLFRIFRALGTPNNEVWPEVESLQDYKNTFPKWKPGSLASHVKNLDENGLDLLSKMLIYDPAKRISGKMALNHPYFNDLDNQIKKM
T2 sequence (P14635 whole entry partner): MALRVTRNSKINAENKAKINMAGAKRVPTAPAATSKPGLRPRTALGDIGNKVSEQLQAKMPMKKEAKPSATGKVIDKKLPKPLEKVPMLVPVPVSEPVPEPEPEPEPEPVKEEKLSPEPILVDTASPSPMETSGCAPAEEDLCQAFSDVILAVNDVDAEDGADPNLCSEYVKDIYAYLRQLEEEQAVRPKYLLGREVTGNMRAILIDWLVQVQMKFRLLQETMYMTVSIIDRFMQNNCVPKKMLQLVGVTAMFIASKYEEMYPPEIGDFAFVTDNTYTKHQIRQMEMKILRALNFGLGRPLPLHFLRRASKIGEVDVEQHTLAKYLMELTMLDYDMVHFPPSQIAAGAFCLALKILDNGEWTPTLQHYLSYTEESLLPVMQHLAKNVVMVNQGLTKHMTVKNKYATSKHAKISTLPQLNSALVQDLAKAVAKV

NC(=O)c1ccc(Nc2ccc3c(c2)/C(=C/Nc2ccc(CN4CCCCC4)cc2)C(=O)NC3=O)cc1 [Example 894, 4-{[(4Z)-1,3-dioxo-4-({[4-(piperidin-1-ylmethyl)phenyl]amino}methylene)-1,2,3,4-tetrahydroisoquinolin-6-yl]amino}benzamide]
IC50 (IGF1-receptor kinase): 1.11 µM

CC(=O)c1ccc(Nc2ccc3c(c2)/C(=C/Nc2ccc(CN4CCCCC4)cc2)C(=O)NC3=O)cc1 [Example 901, (4Z)-6-[(4-acetylphenyl)amino]-4-({[4-(piperidin-1-ylmethyl)phenyl]amino}methylene)isoquinoline-1,3(2H,4H)-dione]
IC50 (IGF1-receptor kinase): 6.03 µM

O=C1NC(=O)c2ccc(Nc3ccc4c(c3)OCO4)cc2/C1=C/Nc1ccc(CN2CCCCC2)cc1 [Example 896, (4Z)-6-(1,3-benzodioxol-5-ylamino)-4-({[4-(piperidin-1-ylmethyl)phenyl]amino}methylene)isoquinoline-1,3(2H,4H)-dione]
IC50 (IGF1-receptor kinase): 0.83 µM

CN(C)Cc1ccc(N/C=C2\C(=O)NC(=O)c3ccc(Nc4ccccc4)cc32)cc1 [Example 906, (4Z)-6-anilino-4-[({4-[(dimethylamino)methyl]phenyl}amino)methylene]isoquinoline-1,3(2H,4H)-dione]
IC50 (IGF1-receptor kinase): 0.92 µM

COc1ccc(Nc2ccc3c(c2)/C(=C/Nc2ccc(CN(C)C)cc2)C(=O)NC3=O)cc1 [Example 908, (4Z)-4-[({4-[(dimethylamino)methyl]phenyl}amino)methylene]-6-[(4-methoxyphenyl)amino]isoquinoline-1,3(2H,4H)-dione]
IC50 (IGF1-receptor kinase): 0.566 µM

O=C1NC(=O)c2ccc(Nc3cccc4ncccc34)cc2/C1=C/Nc1ccc(CN2CCCCC2)cc1 [Example 913, (4Z)-4-({[4-(piperidin-1-ylmethyl)phenyl]amino}methylene)-6-(quinolin-5-ylamino)isoquinoline-1,3(2H,4H)-dione]
IC50 (IGF1-receptor kinase): 6.16 µM

CC(=O)c1cccc(Nc2ccc3c(c2)/C(=C/Nc2ccc(N4CC(C)NC(C)C4)cc2)C(=O)NC3=O)c1 (stereo not shown) [Example 910, (4Z)-6-[(3-acetylphenyl)amino]-4-({[4-(3,5-dimethylpiperazin-1-yl)phenyl]amino}methylene)isoquinoline-1,3(2H,4H)-dione]
IC50 (IGF1-receptor kinase): 0.54 µM

CC(=O)c1cccc(Nc2ccc3c(c2)/C(=C/Nc2ccc(CN(C)C)cc2)C(=O)NC3=O)c1 [Example 909, (4Z)-6-[(3-acetylphenyl)amino]-4-[({4-[(dimethylamino)methyl]phenyl}amino)methylene]isoquinoline-1,3(2H,4H)-dione]
IC50 (IGF1-receptor kinase): 0.887 µM

COc1ccc(Nc2ccc3c(c2)/C(=C/Nc2ccc(CN4CCCCC4)cc2)C(=O)NC3=O)cc1 [Example 898, (4Z)-6-[(4-methoxyphenyl)amino]-4-({[4-(piperidin-1-ylmethyl)phenyl]amino}methylene)isoquinoline-1,3(2H,4H)-dione]
IC50 (IGF1-receptor kinase): 0.868 µM

O=C1NC(=O)c2ccc(Nc3cccc(Cl)c3)cc2/C1=C/Nc1ccc(CN2CCCCC2)cc1 [Example 905]
IC50 (IGF1-receptor kinase): 2.62 µM

Cc1ccccc1Nc1ccc2c(c1)/C(=C/Nc1ccc(CN3CCCCC3)cc1)C(=O)NC2=O [Example 882, 4-[(4-piperidin-1-ylmethyl-phenylamino)-methylene]-6-o-tolylamino-4H-isoquinoline-1,3-dione]
IC50 (IGF1-receptor kinase): 4.47 µM

N#Cc1ccc(Nc2ccc3c(c2)/C(=C/Nc2ccc(CN4CCCCC4)cc2)C(=O)NC3=O)cc1 [Example 897, 4-{[(4Z)-1,3-dioxo-4-({[4-(piperidin-1-ylmethyl)phenyl]amino}methylene)-1,2,3,4-tetrahydroisoquinolin-6-yl]amino}benzonitrile]
IC50 (IGF1-receptor kinase): 1.52 µM

O=C1NC(=O)c2ccc(Nc3ccc4[nH]ccc4c3)cc2/C1=C/Nc1ccc(CN2CCCCC2)cc1 [Example 912]
Igfr % Inhibition at 10 uM (IGF1-receptor kinase; 10 uM compound): 9%

O=C1NC(=O)c2ccc(Nc3ccccc3Cl)cc2/C1=C/Nc1ccc(CN2CCCCC2)cc1 [Example 904, (4Z)-6-[(2-chlorophenyl)amino]-4-({[4-(piperidin-1-ylmethyl)phenyl]amino}methylene)isoquinoline-1,3-(2H,4H)-dione]
IC50 (IGF1-receptor kinase): 1.7 µM

CN(C)c1ccc(Nc2ccc3c(c2)/C(=C/Nc2ccc(CN4CCCCC4)cc2)C(=O)NC3=O)cc1 [Example 888, (4Z)-6-{[4-(dimethylamino)phenyl]amino}-4-({[4-(piperidin-1-ylmethyl)phenyl]amino}methylene)isoquinoline-1,3(2H,4H)-dione]
inhibition at 10 µM (IGF1-receptor kinase; 10 uM compound, read-out: Igfr % Inhibition at 10 uM): 14%

COc1ccccc1Nc1ccc2c(c1)/C(=C/Nc1ccc(CN3CCCCC3)cc1)C(=O)NC2=O [Example 891]
IC50 (IGF1-receptor kinase): 0.575 µM

COCC1CCCN1Cc1ccc(N/C=C2\C(=O)NC(=O)c3ccc(Br)cc32)cc1 (stereo in doubt) [Example 39]
IC50 (HCT-116): 7.5 µM
IC50 (BT474): 7.9 µM
IC50 (cyclin B/CDK1 enzyme): > 50 µM
IC50 (cyclin E/CDK2 enzyme): > 50 µM
IC50 (cyclin D1/cdk 4 enzyme): 1.1 µM
IC50 (SK-UT-1B): 10 µM
IC50 (MCF-7): 6.3 µM
melting point: 129 to 130 °C
IC50 (LoVo): 9.4 µM

O=C1NC(=O)c2ccc(Br)cc2/C1=C/NCc1ccncc1 [Example 31, (4Z)-6-Bromo-4-{[(pyridin-4-ylmethyl)amino]methylene}isoquinoline-1,3(2H,4H)-dione]
IC50 (HCT-116): 31 µM
IC50 (BT474): 41 µM
IC50 (cyclin B/CDK1 enzyme): > 50 µM
IC50 (cyclin E/CDK2 enzyme): 2.4 µM
IC50 (cyclin D1/cdk 4 enzyme): > 50 µM
IC50 (SK-UT-1B): > 50 µM
IC50 (MCF-7): > 50 µM
melting point: 258 to 259 °C
IC50 (LoVo): > 50 µM

O=C1NC(=O)c2ccccc2/C1=C/Nc1ccc2ncccc2c1 [Example 8, (4Z)-4-[(Quinolin-6-ylamino)methylene]isoquinoline-1,3(2H,4H)-dione]
IC50 (HCT-116): > 50 µM
IC50 (BT474): > 50 µM
IC50 (cyclin B/CDK1 enzyme): > 32 µM
IC50 (cyclin E/CDK2 enzyme): > 32 µM
IC50 (cyclin D1/cdk 4 enzyme): > 50 µM
IC50 (SK-UT-1B): 8.9 µM
IC50 (MCF-7): > 50 µM
melting point: 277 to 278 °C
IC50 (LoVo): > 50 µM

COc1ccc(N/C=C2\C(=O)NC(=O)c3ccccc32)cc1 [Example 1, (4Z)-4-{[(4-Methoxyphenyl)amino]methylene}isoquinoline-1,3(2H,4H)-dione]
IC50 (HCT-116): 29 µM
IC50 (BT474): 43 µM
IC50 (cyclin B/CDK1 enzyme): > 36 µM
IC50 (cyclin E/CDK2 enzyme): 18.9 µM
IC50 (cyclin D1/cdk 4 enzyme): 38 µM
IC50 (SK-UT-1B): > 36 µM
IC50 (MCF-7): 19 µM
melting point: 150 to 151 °C
IC50 (LoVo): 30 µM
